According to ChEMBL document CHEMBL3244379, “Stereochemical studies on medicinal agents. 23. Synthesis and biological evaluation of 6-amino derivatives of naloxone and naltrexone” (J Med Chem, 1977):
Calls of active or inactive are those of the source. No cut-off for these calls is given here.

Tests used:
Mus musculus [1] = experiment: Antinociceptive activity in sc dosed Swiss Webster mouse by tail-flick assay; type: functional
[2] = biological target: T1, Opioid receptors; mu/kappa/delta (Homo sapiens, UniProt P41145+P41143+P35372); experiment: Displacement of [3H] naloxone from opioid receptor (unknown origin)
[3] = biological target: T1, Opioid receptors; mu/kappa/delta; experiment: Displacement of [3H] naloxone from opioid receptor (unknown origin) in presence of 100 mM NaCl
Mus musculus [4] = experiment: Antinociceptive activity in Swiss Webster mouse at 1.6 mg/kg, sc by tail-flick assay; type: functional, organism-based; set-up: dose 1.6 mg/kg
Mus musculus [5] = experiment: Antinociceptive activity in Swiss Webster mouse at 5.12 mg/kg, sc by tail-flick assay; type: functional; details: route subcutaneous

| SMILES | ED50 (Mus musculus [1]) | IC50 [2] | IC50 [3] | inhibition (Mus musculus [4]) | inhibition in vivo at 5.12 mg/kg (Mus musculus [5]) |
| --- | --- | --- | --- | --- | --- |
| C=CCN1CC[C@]23c4c5ccc(O)c4O[C@H]2[C@H](N)CC[C@@]3(O)[C@H]1C5.Cl | 4.9 mg/kg | 8.6 ×10⁻⁸ M | 5.3 ×10⁻⁸ M | – | – |
| C=CCN1CC[C@]23c4c5ccc(O)c4O[C@H]2[C@@H](N)CC[C@@]3(O)[C@H]1C5.Cl | – | 1.4 ×10⁻⁷ M | 1.1 ×10⁻⁷ M | inactive | – |
| Cl.N[C@@H]1CC[C@@]2(O)[C@H]3Cc4ccc(O)c5c4[C@@]2(CCN3CC2CC2)[C@H]1O5 | – | 9.1 ×10⁻¹⁰ M | 7 ×10⁻¹⁰ M | – | 27% |
| CN1CC[C@]23c4c5ccc(O)c4O[C@H]2[C@@H](O)C=C[C@H]3[C@H]1C5.Cl [MORPHINE HYDROCHLORIDE] | 0.33 mg/kg | – | – | – | – |
| Cl.N[C@H]1CC[C@@]2(O)[C@H]3Cc4ccc(O)c5c4[C@@]2(CCN3CC2CC2)[C@H]1O5 | – | 2.9 nM | 9 nM | – | 18% |
